For one experiment, the species on record is Mus musculus. Kind of experiment: Effective dose was evaluated by mouse air-pouch assay. The experiment is classed as functional.
Take `CS(=O)(=O)c1ccc(-c2[nH]c(C(F)(F)F)nc2-c2ccccc2)cc1`: the ED50 (usually the dose at which the effect has come halfway, by size or by number of responders) is 0.38 mg/kg.

A further experiment has as its system Mus musculus. As to the kind of experiment: In vivo inhibitory activity by mouse air-pouch assay at dose 2 MPK was determined. The experiment is classed as functional.
In the case of `CS(=O)(=O)c1ccc(-c2[nH]c(C(F)(F)F)nc2-c2ccc(F)c(F)c2)cc1`, the inhibition in vivo (usually the change of the read-out against control, counted positive when it falls) at 2 mg/kg worked out at 68%.

With `CS(=O)(=O)c1ccc(-c2[nH]c(C(F)(F)F)nc2-c2cccs2)cc1`, testing at 2 mg/kg gave an inhibition in vivo of 79%.

`CS(=O)(=O)c1ccc(-c2[nH]c(C(F)(F)F)nc2NS(=O)(=O)c2ccc(F)cc2)cc1`: the inhibition in vivo at 2 mg/kg was found to be 33%. Still for that read-out and setting: the same measure for `Cc1ccc(-c2[nH]c(C(F)(F)F)nc2-c2ccc(S(C)(=O)=O)cc2)cc1Cl`: 0%. Same read-out and setting: as for `CS(=O)(=O)c1ccc(-c2[nH]c(C(F)(F)F)nc2-c2cccnc2)cc1`, the figure is 29%; as for `CS(=O)(=O)c1ccc(-c2[nH]c(C(F)(F)F)nc2-c2ccc(F)cc2F)cc1`, 100%. Turning to `Cc1ccc(-c2cc(C(F)(F)F)nn2-c2ccc(S(N)(=O)=O)cc2)cc1` [CELECOXIB], the ED50 came to 0.33 mg/kg. Take `Cc1cccc(-c2[nH]c(C(F)(F)F)nc2-c2ccc(S(C)(=O)=O)cc2)c1`: at 2 mg/kg the inhibition in vivo was 29%. Still for that read-out and setting: as for `CS(=O)(=O)c1ccc(-c2[nH]c(C(F)(F)F)nc2-c2ccccc2Cl)cc1`, the figure is 86%; as for `CS(=O)(=O)c1ccc(-c2[nH]c(C(F)(F)F)nc2-c2cccc(F)c2)cc1`, 92%. The compound `CS(=O)(=O)c1ccc(-c2[nH]c(C(F)(F)F)nc2-c2ccc(F)cc2)cc1` came in with an inhibition in vivo at 2 mg/kg of 99%.

As for `CS(=O)(=O)c1ccc(-c2[nH]c(C(F)(F)F)nc2-c2ccc(Cl)c(Cl)c2)cc1`, testing at 2 mg/kg gave an inhibition in vivo of 84%. On the same count and under the same terms, the same measure for `CS(=O)(=O)c1ccc(-c2[nH]c(C(F)(F)F)nc2-c2ccc(Cl)cc2)cc1`: 86%; for `Cc1c(F)cccc1-c1[nH]c(C(F)(F)F)nc1-c1ccc(S(C)(=O)=O)cc1`: 94%. Same read-out and setting: as for `CS(=O)(=O)c1ccc(-c2[nH]c(C(F)(F)F)nc2-c2cccc(Cl)c2)cc1`, the figure is 98%; as for `CS(=O)(=O)c1ccc(-c2[nH]c(C(F)(F)F)nc2-c2ccsc2)cc1`, 0%.

Another experiment concerns Mus musculus. Kind of experiment: In vivo inhibitory activity by mouse air-pouch assay at dose 2 mg/Kg was determined. The experiment is classed as functional.
The compound `CS(=O)(=O)c1ccc(-c2[nH]c(C(F)(F)F)nc2-c2ccccc2)cc1` had an inhibition in vivo at 2 mg/kg of 95%.

The species entered for another experiment is Rattus norvegicus. As to the kind of experiment: Effective dose was evaluated by rat adjuvant arthritis model. It counts as functional.
With `CS(=O)(=O)c1ccc(-c2[nH]c(C(F)(F)F)nc2-c2ccccc2)cc1`, the ED50 is 0.16 mg/kg.

Consider `Cc1ccc(-c2cc(C(F)(F)F)nn2-c2ccc(S(N)(=O)=O)cc2)cc1` [CELECOXIB], for which the ED50 turned out to be 0.37 mg/kg.

Values taken from ChEMBL document CHEMBL1130700, “Antiinflammatory 4,5-diarylimidazoles as selective cyclooxygenase inhibitors” (1998).
